# According to ChEMBL document CHEMBL6114972, “Proteolysis targeting chimera of BI-2536 induces potent dual degradation of PLK1 and BET proteins” (Bioorg Med Chem, 2025):
# Calls of active or inactive are those of the source. The rule behind the calls is not given here.
# What was measured:
# MDA-MB-231 = assay: Cytotoxicity against human MDA-MB-231 cells assessed as reduction in cell viability measured after 3 days by CCK-8 assay; assay type: functional, cell-based; details: MDA-MB-231, 72 h
# [1] = biological target: von Hippel-Lindau disease tumor suppressor/Bromodomain-containing protein 4 (Homo sapiens) (UniProt O60885+P40337); assay: Protac activity at VHL/BRD4 in human HeLa cells assessed as BRD4 degradation at 500 nM measured after 12 hrs by Western blot analysis; assay type: cell-based
# [2] = biological target: von Hippel-Lindau disease tumor suppressor/Serine/threonine-protein kinase PLK1 (Homo sapiens) (UniProt P53350+P40337); assay: Protac activity at VHL/PLK1 in human HeLa cells assessed as PLK1 degradation at 500 nM measured after 12 hrs by Western blot analysis; assay type: cell-based
# K562 = assay: Cytotoxicity against human K562 cells assessed as reduction in cell viability measured after 3 days by CCK-8 assay; assay type: functional, cell-based; details: K562, 72 h
# CWR22R = assay: Cytotoxicity against human 22Rv1 cells assessed as reduction in cell viability measured after 3 days by CCK-8 assay; assay type: functional, cell-based; details: 22Rv1, 72 h
# HeLa [3] = assay: Cytotoxicity against human HeLa cells assessed as reduction in cell viability measured after 3 days by CCK-8 assay; assay type: functional, cell-based; details: 72 h
# [4] = biological target: T1, Protein cereblon/Bromodomain-containing protein 4 (Homo sapiens, UniProt O60885+Q96SW2); assay: Protac activity at CRBN/BRD4 in human HeLa cells assessed as BRD4 degradation at 20 nM measured after 24 hrs by Western blot analysis; assay type: cell-based
# [5] = biological target: T1, Protein cereblon/Bromodomain-containing protein 4; assay: Protac activity at CRBN/BRD4 in human HeLa cells assessed as BRD4 degradation at 500 nM measured after 12 hrs by Western blot analysis; assay type: cell-based
# [6] = biological target: T2, Protein cereblon/Serine/threonine-protein kinase PLK1 (Homo sapiens, UniProt P53350+Q96SW2); assay: Protac activity at CRBN/PLK1 in human HeLa cells assessed as PLK1 degradation at 500 nM measured after 12 hrs by Western blot analysis; assay type: cell-based
# [7] = biological target: T2, Protein cereblon/Serine/threonine-protein kinase PLK1; assay: Protac activity at CRBN/PLK1 in human 22Rv1 cells assessed as PLK1 degradation at 5 to 10 nM measured after 36 hrs by Western blot analysis; assay type: cell-based; details: dose 5-10 nM
# HeLa [8] = assay: Induction of degradation of PLK1 in human HeLa cells at 500 nM measured after 12 hrs by Western blot analysis; assay type: cell-based
# HeLa [9] = assay: Induction of degradation of BRD4 in human HeLa cells at 500 nM measured after 12 hrs by Western blot analysis; assay type: cell-based
# [10] = biological target: T2, Protein cereblon/Serine/threonine-protein kinase PLK1; assay: Protac activity at CRBN/PLK1 in human 22Rv1 cells assessed as PLK1 degradation at 10 nM measured after 36 hrs by Western blot analysis; assay type: cell-based
# Chain of von Hippel-Lindau disease tumor suppressor/Serine/threonine-protein kinase PLK1 (Homo sapiens) (P40337 whole entry, looked up): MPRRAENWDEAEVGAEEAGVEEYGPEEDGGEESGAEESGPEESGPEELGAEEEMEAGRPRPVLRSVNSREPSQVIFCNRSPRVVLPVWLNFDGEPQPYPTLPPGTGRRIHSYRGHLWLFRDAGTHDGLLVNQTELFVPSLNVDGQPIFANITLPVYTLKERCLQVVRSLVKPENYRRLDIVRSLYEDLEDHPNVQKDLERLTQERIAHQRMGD
# Chain of von Hippel-Lindau disease tumor suppressor/Serine/threonine-protein kinase PLK1 (Homo sapiens) (P53350 whole entry, looked up): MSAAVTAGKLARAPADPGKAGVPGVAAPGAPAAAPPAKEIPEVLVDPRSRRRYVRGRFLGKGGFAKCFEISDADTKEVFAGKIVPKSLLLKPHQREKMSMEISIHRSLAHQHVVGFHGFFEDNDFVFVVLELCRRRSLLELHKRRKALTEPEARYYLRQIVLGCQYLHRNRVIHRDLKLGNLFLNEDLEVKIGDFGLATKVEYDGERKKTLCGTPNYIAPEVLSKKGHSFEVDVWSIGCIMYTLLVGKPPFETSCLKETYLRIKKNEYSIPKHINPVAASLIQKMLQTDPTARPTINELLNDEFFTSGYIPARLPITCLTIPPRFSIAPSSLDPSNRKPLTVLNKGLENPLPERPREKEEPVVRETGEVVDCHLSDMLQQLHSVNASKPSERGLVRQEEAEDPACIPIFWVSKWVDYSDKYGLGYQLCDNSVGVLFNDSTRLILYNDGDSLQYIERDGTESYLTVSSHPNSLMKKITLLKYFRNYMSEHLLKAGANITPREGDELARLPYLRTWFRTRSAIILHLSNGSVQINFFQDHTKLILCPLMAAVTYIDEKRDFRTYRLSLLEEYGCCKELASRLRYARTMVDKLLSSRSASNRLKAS
# Chain of von Hippel-Lindau disease tumor suppressor/Bromodomain-containing protein 4 (Homo sapiens) (P40337 whole entry, looked up, other chains not shown): as the sequence (P40337 whole entry, looked up) above
# T2 sequence (P53350 2-603 limits assumed): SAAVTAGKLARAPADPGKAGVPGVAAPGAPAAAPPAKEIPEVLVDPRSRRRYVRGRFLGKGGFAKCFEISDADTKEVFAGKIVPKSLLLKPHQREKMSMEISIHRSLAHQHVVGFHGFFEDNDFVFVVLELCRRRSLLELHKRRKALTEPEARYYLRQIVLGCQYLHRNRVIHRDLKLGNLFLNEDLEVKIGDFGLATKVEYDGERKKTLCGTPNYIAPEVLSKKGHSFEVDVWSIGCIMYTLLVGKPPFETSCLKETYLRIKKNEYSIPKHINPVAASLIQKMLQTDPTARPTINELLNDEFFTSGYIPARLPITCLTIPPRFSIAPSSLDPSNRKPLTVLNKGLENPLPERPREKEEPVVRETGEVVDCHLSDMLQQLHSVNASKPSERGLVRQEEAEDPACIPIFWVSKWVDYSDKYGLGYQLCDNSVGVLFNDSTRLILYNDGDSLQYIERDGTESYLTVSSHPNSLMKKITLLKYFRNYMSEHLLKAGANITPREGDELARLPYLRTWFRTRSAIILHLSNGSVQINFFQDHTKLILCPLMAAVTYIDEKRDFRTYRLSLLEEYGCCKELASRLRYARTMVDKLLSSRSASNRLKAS
# T2 sequence (Q96SW2 whole entry partner): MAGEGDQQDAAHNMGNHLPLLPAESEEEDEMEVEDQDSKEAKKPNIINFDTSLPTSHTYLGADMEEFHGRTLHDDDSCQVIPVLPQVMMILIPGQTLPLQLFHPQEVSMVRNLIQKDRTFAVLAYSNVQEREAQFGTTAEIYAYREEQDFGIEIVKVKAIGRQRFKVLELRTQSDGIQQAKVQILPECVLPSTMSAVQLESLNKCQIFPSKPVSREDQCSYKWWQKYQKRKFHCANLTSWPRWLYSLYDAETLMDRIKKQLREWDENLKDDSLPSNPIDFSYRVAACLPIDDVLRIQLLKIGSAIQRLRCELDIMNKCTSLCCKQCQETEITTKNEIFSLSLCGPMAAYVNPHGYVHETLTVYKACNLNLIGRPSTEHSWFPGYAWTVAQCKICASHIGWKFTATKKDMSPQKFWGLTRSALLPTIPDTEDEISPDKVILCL
# T1 sequence (Q96SW2 whole entry, looked up, other chains not shown): as the sequence (Q96SW2 whole entry partner) above
Compound,Activity [1] [%],Activity [2] [%],Activity [4],Activity [5] [%],Activity [6] [%],Activity [7],Activity [10],IC50 (MDA-MB-231) [nM],IC50 (K562) [nM],IC50 (CWR22R) [nM],IC50 (HeLa [3]) [nM],Activity (HeLa [8]) [%],Activity (HeLa [9]) [%]
CC[C@@H]1C(=O)N(C)c2cnc(Nc3ccc(C(=O)NC4CCN(CCCCCC(=O)N[C@H](C(=O)N5C[C@H](O)C[C@H]5C(=O)NCc5ccc(-c6scnc6C)cc5)C(C)(C)C)CC4)cc3OC)nc2N1C1CCCC1,7,0.3,–,–,–,–,–,> 1000,> 1000,> 1000,398,–,–
Cc1ncsc1-c1ccc([C@H](C)NC(=O)[C@@H]2C[C@@H](O)CN2C(=O)[C@@H](NC(=O)COCCCOCCNC(=O)C[C@@H]2N=C(c3ccc(Cl)cc3)c3c(sc(C)c3C)-n3c(C)nnc32)C(C)(C)C)cc1,–,–,–,–,–,inactive,–,–,–,–,–,–,–
CC[C@@H]1C(=O)N(C)c2cnc(Nc3ccc(C(=O)NC4CCN(CCCCCCC(=O)N[C@H](C(=O)N5C[C@H](O)C[C@H]5C(=O)NCc5ccc(-c6scnc6C)cc5)C(C)(C)C)CC4)cc3OC)nc2N1C1CCCC1,10,0,–,–,–,–,–,> 1000,> 1000,> 1000,193,–,–
CC[C@@H]1C(=O)N(C)c2cnc(Nc3ccc(C(=O)NC4CCN(C)CC4)cc3OC)nc2N1C1CCCC1,–,–,–,–,–,–,–,–,–,–,–,0,0
Cc1ncsc1-c1ccc(CNC(=O)[C@@H]2C[C@@H](O)CN2C(=O)[C@@H](NC(=O)CCCCCCCCCCNC(=O)c2cc3c(cc2CS(C)(=O)=O)-c2cn(C)c(=O)c4[nH]cc(c24)CN3c2ncc(F)cc2F)C(C)(C)C)cc1,–,–,–,–,–,–,inactive,–,–,–,–,–,–

# More lines, main results first:
Activity [1] [%],Activity [2] [%],Activity [4],Activity [5] [%],Activity [6] [%],Activity [7],Activity [10],Compound,IC50 (MDA-MB-231) [nM],IC50 (K562) [nM],IC50 (CWR22R) [nM],IC50 (HeLa [3]) [nM],Activity (HeLa [8]) [%],Activity (HeLa [9]) [%]
–,–,Active,94,18,–,–,CC[C@@H]1C(=O)N(C)c2cnc(Nc3ccc(C(=O)NC4CCN(CCCCCCC(=O)Nc5cccc6c5C(=O)N(C5CCC(=O)NC5=O)C6=O)CC4)cc3OC)nc2N1C1CCCC1 (some centres not stated),489,89,48,54,–,–
–,–,Active,93,7,–,–,CC[C@@H]1C(=O)N(C)c2cnc(Nc3ccc(C(=O)NC4CCN(CCCCCCCCCC(=O)Nc5cccc6c5C(=O)N(C5CCC(=O)NC5=O)C6=O)CC4)cc3OC)nc2N1C1CCCC1 (some centres not stated),527,133,63,125,–,–
22,6,–,–,–,–,–,CC[C@@H]1C(=O)N(C)c2cnc(Nc3ccc(C(=O)NC4CCN(CCCCCCCC(=O)N[C@H](C(=O)N5C[C@H](O)C[C@H]5C(=O)NCc5ccc(-c6scnc6C)cc5)C(C)(C)C)CC4)cc3OC)nc2N1C1CCCC1,> 1000,527,> 1000,158,–,–
50,8,–,–,–,–,–,CC[C@@H]1C(=O)N(C)c2cnc(Nc3ccc(C(=O)NC4CCN(CCCCCCCCCC(=O)N[C@H](C(=O)N5C[C@H](O)C[C@H]5C(=O)NCc5ccc(-c6scnc6C)cc5)C(C)(C)C)CC4)cc3OC)nc2N1C1CCCC1,928,66,225,52,–,–
